For assay [1], the system named is genotype A, "Long" strain RSV. Briefly: RSV-A assay (CPE, ATPlite readout in Hep-2 cells). Type of assay: cell-based. As to conditions: human respiratory syncytial virus, HEp-2, Hep-2 cells, genotype A "Long" strain RSV, MOI 0.1; read-out: Human RSV-A (“Long” strain) EC50. Summed up:
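Hep-2 cells (8,000/well) received 2-fold serial compound dilutions in duplicate and RSV Long strain at MOI 0.1. After 5 days' incubation, cell health was read as ATP by ATPlite luminescence, with virus-only and uninfected controls defining max and minimum CPE; EC50 reported.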
On the technique in general: Cellular ATP, detected with luciferase, serves as a proxy for viable cell number.

The test system of assay [2] is recombinant HMPV CAN97-83 (MPV-GFP1). In words: HMPV antiviral assay (MPV-GFP1 eGFP fluorescence in Vero E6 cells). The assay is classed as cell-based. The conditions noted are these: human metapneumovirus, Vero C1008, 120 h, read-out: HMPV EC50. Summed up: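 Vero E6 cells in serum-free OptiMEM with 0.5 μg/mL TPCK-trypsin infected with eGFP-expressing HMPV CAN97-83 (MPV-GFP1) at MOI 0.05. 8-point […] ½-step dilutions from 8 or 2 μM, 0.5% DMSO, 5 days at 32 °C. eGFP fluorescence normalized to infected untreated wells; EC50 from four-parameter logistic fit.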

The subject of the next assay is HRSV. The conditions noted are these: prophylactic use, high risk infants; cited from earlier work.

Bounds are passed on as bounds.

We go through 15 molecules from patent US11505558B1, “Antiviral heterocyclic compounds” (Enanta Pharmaceuticals, Inc., priority 2019, dated 2022).

Regarding `Cc1cnc2c(NC(=O)c3nc(C)co3)cc(C(=O)NC[C@](O)(c3cc4c(c(-c5ccc(F)cc5)n3)OC[C@]4(C)C(N)=O)C(F)(F)F)cc2c1` [Example 623], the EC50 was under 200 nM in assay [1] and over 500 nM in assay [2].
As to `Cc1cnc2c(NC(=O)c3cnc(C)o3)cc(C(=O)NC[C@](O)(c3cc4c(c(-c5ccc(F)cc5)n3)OC[C@]4(C)C(N)=O)C(F)(F)F)cc2c1` [Example 624], the values for the EC50 in assay [1] and in assay [2] were under 200 nM and under 500 nM, respectively.
For the molecule `Cc1ccc2cc(C(=O)NC[C@](O)(c3cc4c(c(-c5ccc(F)cc5)n3)OC[C@]4(C)C(N)=O)C(F)(F)F)cc(NC(=O)C3CC3)c2n1` [Example 626], the EC50 in assay [1] was under 200 nM; in assay [2], over 500 nM.
The corresponding values for `Cc1ccc2cc(C(=O)NC[C@](O)(c3cc4c(c(-c5ccc(F)cc5)n3)OC[C@]4(C)C(N)=O)C(F)(F)F)cc(NC(=O)C3(F)CC3)c2n1` [Example 627] are under 200 nM and over 500 nM.
For `C[C@]1(C(N)=O)COc2c1cc([C@@](O)(CNC(=O)c1cc(Cl)c3nc(N)sc3c1)C(F)(F)F)nc2-c1ccc(F)cc1` [Example 633], in that order: under 200 nM and under 500 nM.
In the case of `COc1cc(C(=O)NC[C@](O)(c2cc3c(c(-c4ccc(F)cc4)n2)OC[C@]3(C)C(=O)NCC(C)(C)O)C(F)(F)F)cc2cn(C)nc12` [Example 635], the EC50 was under 200 nM in assay [1] and under 500 nM in assay [2].
Turning to `Cn1cc2cc(C(=O)NC[C@](O)(c3cc4c(c(-c5ccc(F)c(Cl)c5)n3)OC[C@]4(C)C(N)=O)C3CC3)ccc2n1` [Example 638], the EC50 is under 200 nM in assay [1] and under 500 nM in assay [2].
With `Cn1cc2cc(C(=O)NC[C@](O)(c3cc4c(c(-c5ccc(F)cc5)n3)OC[C@]4(C)C(=O)NCC(C)(C)O)C(F)(F)F)ccc2n1` [Example 640], the EC50 in assay [1] was under 200 nM; in assay [2], over 500 nM.
The corresponding values for `Cc1ccc(-c2nc([C@@](O)(CNC(=O)c3ccc4nn(C)cc4c3)C(F)(F)F)cc3c2OC[C@]3(C)C(N)=O)cc1` [Example 641] are under 200 nM and over 500 nM.
For `Cn1cc2cc(C(=O)NC[C@](O)(c3cc4c(c(-c5ccc(F)cc5)n3)OC[C@]4(C)C(=O)NCC(C)(C)O)C3CC3)ccc2n1` [Example 642], in that order: under 200 nM and over 500 nM.
For `COc1cc(C(=O)NC[C@](O)(c2cc3c(c(-c4ccc(F)cc4)n2)OCC3(F)C(N)=O)C(F)(F)F)cc2cc(Cl)c(C)nc12` (some centres unmarked) [Example 668], in that order: under 200 nM and under 500 nM.
In the case of `COc1cc(C(=O)NC[C@](O)(c2cc3c(c(-c4ccc(F)cc4)n2)OCC3(F)C(N)=O)C(F)(F)F)cc2cccnc12` (some centres unmarked) [Example 669], the results for the 50% effective concentration (EC50) in assay [1] and in assay [2] were under 200 nM and over 500 nM, respectively.
For `COc1cc(C(=O)NC[C@](O)(c2cc3c(c(-c4ccc(F)cc4)n2)OCC3(F)C(N)=O)C(F)(F)F)cc2cn(C(F)F)nc12` (some centres unmarked) [Example 670], in that order: under 200 nM and under 500 nM.
The corresponding values for `COc1cc(C(=O)NC[C@](O)(c2cc3c(c(-c4ccc(F)cc4)n2)OCC3(F)C(N)=O)C(F)(F)F)cc2cn(C3CC3)nc12` (some centres unmarked) [Example 676] are under 200 nM and under 500 nM.
For Palivizumab, the “effective in reducing hospitalizations” value in the assay on HRSV is reported as 60%.

As usually defined, the EC50 is the midpoint of the concentration-response curve.
